Measured values reported in paper PMC7300217, “Surfactin Like Broad Spectrum Antimicrobial Lipopeptide Co-produced With Sublancin From Bacillus subtilis Strain A52: Dual Reservoir of Bioactives” (Frontiers in Microbiology, 2020).

How the values were obtained:
[1] = system: S. aureus MTCC 1430; assay: In-gel activity assay (Tricine-SDS-PAGE); assay type: cell-based, Staphylococcus aureus; details: 16% Tricine-SDS-PAGE, ∼10^6 cells/ml
Experimental: Purified antimicrobial peptides were analyzed on TLC plates (Silica gel 60 F254, Merck, Germany) and used to determine the purity and antimicrobial activity of the compound by bioautographic assay ([Zheng et al., 2005]). About 50–60 μl of the peptide solution (100 μg/ml concentration) was loaded onto individual TLC silica gel plates in duplicates and were developed using a solvent system containing chloroform: […]: water (65:12:4 v/v). Subsequently, each TLC plate was dried, cut into two vertical parts, and one part of the TLC was used for direct detection of antimicrobial activity by overlaying on NA plate containing indicator strain (S. aureus MTCC 1430, ∼10^6 cells/ml). After allowing for 1 h of diffusion at 4°C, the TLC strip was removed and plates were incubated for 24 h at 37°C. The other part of TLC strip (5–10 μl of the peptide solution spot) was sprayed with ninhydrin and phosphomolybdic acid as a staining reagent to detect the presence of peptides and lipid moieties, respectively. Similarly, peptides were electrophoresed on 16% Tricine-SDS-PAGE and used for in-gel activity assay as described earlier ([Baindara et al., 2016]). S. aureus MTCC 1430 (∼10^6 cells/ml) was used as an indicator strain in assay.

[2] = system: B. coagulans MTCC 492; assay: MIC, microtiter plate dilution assay; assay type: cell-based; details: 5 × 10^5 CFU/ml, 37°C, OD600 after 24 h, triplicate
Experimental: (§1) The minimum inhibitory concentration (MIC) of HPLC purified peptides was evaluated by using microtiter plate dilution assay. The peptide concentration was estimated using BCA protein assay (Thermo Fisher Scientific, United States) method as described by manufacturer. Actively growing test strains (5 × 10^5 CFU/ml) were inoculated in a 96-well plate with different concentrations of the peptides and plates were incubated for 24–48 h at 37°C (final volume in each well is 200 μl). OD was measured at 600 nm after 24 and 48 h for bacteria and yeast, respectively, using ELISA microplate reader (Thermo, United States). MIC against phytopathogenic fungi was determined using 96-well microtiter plate assay ([Kaur et al., 2016]). In 96-well microplates, 100 μl of fungal spore suspension (1 × 10^5 spores/ml) prepared in potato dextrose broth (PDB, Hi-media, India) was mixed with100 μl of fresh PDB containing different concentrations of lipopeptide. Control well contained 100 μl of fungal spore suspension and 100 μl of only medium. The microplates were incubated at 25°C and readings were recorded at 600 nm after 48 h. The lowest concentration showing no growth was considered as MIC. Each test was done in triplicate and optical density (OD600) of peptide treated wells were compared with uninoculated wells (blank medium control).

[3] = system: B. cereus MTCC 430; assay: MIC, microtiter plate dilution assay; assay type: cell-based; details: 5 × 10^5 CFU/ml, 37°C, OD600 after 24 h, triplicate
Experimental: as §1

[4] = system: E. coli MTCC 1610; assay: MIC, microtiter plate dilution assay; assay type: cell-based, Escherichia coli; details: 5 × 10^5 CFU/ml, 37°C, OD600 after 24 h, triplicate
Experimental: The antimicrobial activity was tested by well diffusion assay as mentioned earlier ([Singh et al., 2014]). Strain A52 was grown for 24 h in 500 ml of nutrient broth (NB, Hi-media, India) using 1000 ml flask and subsequently cells were removed by centrifugation (10,000 rpm for 15 min at 4°C). Supernatant was filtered through 0.22 μm filter (Millipore, United States) to obtain cell-free fermented broth (CFB) that was used for antimicrobial assay (50 μl) against various indicator strains and the activity was measured as diameter of inhibition zone. […]
The minimum inhibitory concentration (MIC) of HPLC purified peptides was evaluated by using microtiter plate dilution assay. […] OD was measured at 600 nm after 24 and 48 h for bacteria and yeast, respectively, using ELISA microplate reader (Thermo, United States). MIC against phytopathogenic fungi was determined using 96-well microtiter plate assay ([Kaur et al., 2016]). […] The microplates were incubated at 25°C and readings were recorded at 600 nm after 48 h. […]

Glu^1-Leu/Ile^2-Leu^3-Val^4-Asp^5-Leu^6-Leu/Ile^7 and a β-OH hexadecane fatty acid chain (lariat or depsi) [Lipopeptide A52, cyclic surfactin-like lipopeptide, 7 amino acids and C16 β-hydroxy fatty acid, 1061.9 Da, from B. subtilis strain A52]
antimicrobial activity in in-gel assay [1]: No antimicrobial activity was detected | MIC value, B. coagulans MTCC 492 [2]: 2 µg/mL | MIC value, B. cereus MTCC 430 [3]: 2 µg/mL | MIC value, E. coli MTCC 1610 [4]: 6 µg/mL
